How the values were obtained:
[1] = tested on: C. parvum; test: In vivo testing, SCID mice with acute C. parvum infection; set-up: species or system Cryptospordium parvum
Experimental: SCID mice (Taconic Farms, Germantown, N.Y.), preconditioned with monoclonal antibodies to interferon as described (41), were given an acute infection of C. parvum (10^7 oocysts given orally). A total of five mice in two groups were used. One group received 500 mg/kg/day (in two doses of 250 mg/kg) of thiostrepton six days post-infection and the other group received a placebo. Treatment lasted ten days and oocyst shedding was measured by counting the number of oocysts in 30 fields under high power microscopy of acid-fast stained fecal smears and calculating the mean for each group as described (41). […] Mucosal scores describe the extent of mucosal infection detected in formalin-fixedsections of tissue samples from various gut sites (pyloric region of stomach, liver, gallbladder, mid-small intestine, terminal ileum, cecum and colon) taken during necropsy. Scoring was as follows: 0 (no infection) to 5 (maximal infection) and was expressed as the combined score of the number of gut sites examined.

[2] = tested on: rpoB/C mRNA encoded by the 35-kb plastid-like organelle genome; type: cell-based, P. falciparum
Experimental: As of organelle and cyloplasmic transcript levels. RNA polymerase transcript levels were assessed by comparing the amounts of RNA synthesized at timepoints following drug treatment. Cultures of P. falciparum (3.2% parasitemia, 5% hematocrit) were treated with thiostrepton at 8 μM and rifampin (Sigma) at 80 μM; near the IC99 values (this study and ref. 22). Aliquots (5 ml) of treated and control cultures were removed and immediately processed for RNA with a guanidinium thiocyanate solution, according to the manufacturer's directions (RNAgents, Promega). All RNA samples were dissolved in 50 μl DEPC-treated water, DNase I treated as previously described (23) and an aliquot (1 μl) was removed for RT-PCR First strand synthesis of cDNA was completed with a random hexamer (Superscript Preamplification System, Life Technologies). One-tenth of the CDNA product was utilized for PCR of rpoB/C, MSA1, and rRNA. Primers corresponding to the 3' region of rpoB, 5'-GGGCTTTAGAAGCTTTTGG-3' (SEQ ID NO:1), and the 5' region of rpoC, 5'-[…]-3' (SEQ ID NO:2) were applied as described (2,3) for PCR of nascent rpoB/C transcripts. Reactions were cycled with the following parameters: 94° C./30 seconds, 42° C./30 seconds, 72° C./60 seconds, 35 cycles. Primers for amplification of nucleotide 64 to 614 of MSA1 with 5'-GTGTGATAATATTCATGG-3' (SEQ ID NO:3) and 5'-GGAGAGCATTTGGTG-3' (SEQ ID NO:4)(24) and the small subunit rRNA with oligonucleotides 841 and 844 (23) were used for amplification reactions following the parameters in the respective references except with 35 cycles. Samples were also analyzed after 25 cycles of amplification to ensure detection in the linear range of the amplification reaction, with similar results. Following electrophoresis of aliquots from the amplification reactions on 1% agarose:TBE gels, samples were transferred to nylon membranes (GeneScreen Plus, DuPont) and hybridized as described (25). The amplification products were probed with 5'-^32 P-labeled oligonucleotides. The rpoB/C products were probed with 5'-[…]-3' (SEQ ID NO:5) (nucleotide 2009-2030 of rpoB) and 5'-CGGAGAGGTATTAATACC-3' (SEQ ED NO:6) (nucleotide 108-125 of rpoC), in 5×SSC, 10 mM sodium phosphate, 0.05% sodium pyrophosphate, 1% sodium dodecyl sulfate, 5×Denhardt's solution, 100 μg/ml yeast tRNA, 42° C. and washed in the hybridization solution lacking Denhardt's and tRNA at 37° C., three times. The final wash was 1×SSC, 0.5% sodium dodecyl sulfate, 42° C. followed by autoradiography. The same results were obtained with either probe. The MSA1 amplification products were similarly probed with 5'-[…]-3' (SEQ ID NO:7) and the rRNA products with oligonucleotide 842 (23).
The target of inhibition by thiostrepton. […]

C=C(NC(=O)C(=C)NC(=O)c1csc(C2=N[C@@H]3c4csc(n4)[C@H]4NC(=O)c5csc(n5)[C@H]([C@](C)(O)[C@@H](C)O)NC(=O)[C@H]5CSC(=N5)/C(=C/C)NC(=O)[C@H]([C@@H](C)O)NC(=O)c5csc(n5)[C@]3(CC2)NC(=O)[C@H](C)NC(=O)C(=C)NC(=O)[C@H](C)NC(=O)[C@H]([C@@H](C)CC)N[C@@H]2C=Cc3c([C@H](C)O)cc(nc3[C@H]2O)C(=O)O[C@@H]4C)n1)C(N)=O [Thiostrepton, thiostrepton]
Mucosal score ([1]; 2 × 250 mg/kg, combined score of gut sites, 0 (no infection) to 5 (maximal infection) per site): 9.8
oocyst shedding compared to placebo ([1]; SCID mice, 500 mg/kg/day (two doses of 250 mg/kg), ten days, FIG. 1): significantly reduced oocyst shedding
Oocyst shedding, % Inhib ([1]; last day of 10 day treatment, 2 × 250 mg/kg): 78.9%
Oocyst shedding, Mean ([1]; last day of 10 day treatment, 2 × 250 mg/kg, oocysts in 30 fields of fecal smears): 11.2
decay of mRNA corresponding to rpoB/C, time of drug treatment ([2]; thiostrepton at 8 μM, rifampin at 80 μM): ≤ 6 h
decline of the rpoB/C product with time ([2]; time course, 8 μM): notable affect after only one hour of treatment
effect on levels of nuclear-encoded MSA mRNA and total rRNA ([2]; within the duration of the experiment (8 hours), 8 μM): no effect
